Data on 1 compound can be found in ChEMBL document CHEMBL3046658, “Fate of cyromazine applied in nutrient solution to a gerbera (Gerbera jamesonii) crop grown in a closed hydroponic system” (Crop Prot, 2007).

What all share (type): ADME
The subject of data set [1] is Leaf. The data set can be described thus: Drug level in leaf of Gerbera jamesonii grown in closed hydroponic system assessed per fresh weight at 375 mg/l applied through nutrient solution measured on day 50 post-treatment in summer by gas chromatographic analysis. The note with it: other.
The subject of data set [2] is Flower. Description: Drug level in flower of Gerbera jamesonii grown in closed hydroponic system assessed per fresh weight at 375 mg/l applied through nutrient solution measured on day 121 post-treatment in winter by gas chromatographic analysis. The conditions noted are these: other.
For data set [3], the system named is Leaf. Description: Drug recovery in leaf of Gerbera jamesonii grown in closed hydroponic system at 45 g applied through nutrient solution measured on day 56 post-treatment by gas chromatographic analysis. The conditions noted are these: in vivo, other.
The test system of data set [4] is Flower. Description: Drug level in flower of Gerbera jamesonii grown in closed hydroponic system assessed per fresh weight at 750 mg/l applied through nutrient solution measured on day 121 post-treatment in winter by gas chromatographic analysis. The conditions noted are these: other.
For data set [5], the system named is Root. Description: Drug level in root of Gerbera jamesonii grown in closed hydroponic system assessed per fresh weight at 375 mg/l applied through nutrient solution measured on day 17 post-treatment in winter by gas chromatographic analysis. The note with it: other.
Data set [6] has as its system Root. The data set can be described thus: Drug recovery in root of Gerbera jamesonii grown in closed hydroponic system at 22.5 g applied through nutrient solution measured on day 56 post-treatment by gas chromatographic analysis. The note with it: in vivo, other.
The subject of data set [7] is Flower. The data set can be described thus: Drug level in flower of Gerbera jamesonii grown in closed hydroponic system assessed per fresh weight at 750 mg/l applied through nutrient solution measured on day 56 post-treatment in winter by gas chromatographic analysis. The note with it: other.
Data set [8] deals with Flower. Description: Drug recovery in flower of Gerbera jamesonii grown in closed hydroponic system at 45 g applied through nutrient solution measured on day 56 post-treatment by gas chromatographic analysis. The note with it: in vivo, other.
Data set [9] has as its system Leaf. Description: Drug recovery in leaf of Gerbera jamesonii grown in closed hydroponic system at 22.5 g applied through nutrient solution measured on day 56 post-treatment by gas chromatographic analysis. The conditions noted are these: in vivo, other.
Data set [10] has as its system Leaf. Description: Drug level in leaf of Gerbera jamesonii grown in closed hydroponic system assessed per fresh weight at 375 mg/l applied through nutrient solution measured on day 121 post-treatment in winter by gas chromatographic analysis. The note with it: other.
Data set [11] deals with Leaf. Description: Drug level in leaf of Gerbera jamesonii grown in closed hydroponic system assessed per fresh weight at 750 mg/l applied through nutrient solution measured on day 56 post-treatment in winter by gas chromatographic analysis. The note with it: other.
The test system of data set [12] is Root. The data set can be described thus: Drug level in root of Gerbera jamesonii grown in closed hydroponic system assessed per fresh weight at 750 mg/l applied through nutrient solution measured on day 17 post-treatment in winter by gas chromatographic analysis. The conditions noted are these: other.
Data set [13] relates to Root. Description: Drug level in root of Gerbera jamesonii grown in closed hydroponic system assessed per fresh weight at 375 mg/l applied through nutrient solution measured on day 121 post-treatment in winter by gas chromatographic analysis. The note with it: other.
Data set [14] has as its system Flower. Description: Drug level in flower of Gerbera jamesonii grown in closed hydroponic system at 750 mg/l applied through nutrient solution measured 48 hr post-treatment in winter by gas chromatographic analysis. The conditions noted are these: other.
Data set [15] relates to Root. The data set can be described thus: Drug level in root of Gerbera jamesonii grown in closed hydroponic system assessed per fresh weight at 750 mg/l applied through nutrient solution measured on day 121 post-treatment in winter by gas chromatographic analysis. The conditions noted are these: other.
Data set [16] has as its system Root. Description: Drug recovery in root of Gerbera jamesonii grown in closed hydroponic system at 45 g applied through nutrient solution measured on day 56 post-treatment by gas chromatographic analysis. The note with it: in vivo, other.
Data set [17] deals with Leaf. The data set can be described thus: Drug level in leaf of Gerbera jamesonii grown in closed hydroponic system assessed per fresh weight at 375 mg/l applied through nutrient solution measured on day 56 post-treatment in winter by gas chromatographic analysis. The conditions noted are these: other.
Data set [18] has as its system Leaf. The data set can be described thus: Drug level in leaf of Gerbera jamesonii grown in closed hydroponic system assessed per fresh weight at 750 mg/l applied through nutrient solution measured on day 121 post-treatment in winter by gas chromatographic analysis. The note with it: other.
The test system of data set [19] is Flower. The data set can be described thus: Drug level in flower of Gerbera jamesonii grown in closed hydroponic system at 375 mg/l applied through nutrient solution measured 48 hr post-treatment in winter by gas chromatographic analysis. The note with it: other.
The subject of data set [20] is Flower. The data set can be described thus: Drug level in flower of Gerbera jamesonii grown in closed hydroponic system assessed per fresh weight at 375 mg/l applied through nutrient solution measured on day 56 post-treatment in winter by gas chromatographic analysis. The note with it: other.
Data set [21] relates to Flower. Description: Drug recovery in flower of Gerbera jamesonii grown in closed hydroponic system at 22.5 g applied through nutrient solution measured on day 56 post-treatment by gas chromatographic analysis. The note with it: in vivo, other.

As for `Nc1nc(N)nc(NC2CC2)n1` [CYROMAZINE], the Drug uptake in the data set with Leaf [1] amounted to 65.8 mg/kg; with Flower [2], 1.9 mg/kg; in the data set on Flower [4] it was 2.2 mg/kg; in the data set with Root [5] it was 105 mg/kg; in the data set on Flower [7], 48.2 mg/kg; in the data set on Leaf [10] it was 51.5 mg/kg. For the same compound, the Drug uptake in the data set with Leaf [11] was 129.7 mg/kg; in the data set on Root [12], 93 mg/kg; in the data set on Root [13], 12.2 mg/kg; in the data set on Flower [14], “Not Active”; with Root [15], 15.1 mg/kg; in the data set with Leaf [17] it was 105 mg/kg. For the same compound, the Drug uptake was 61.8 mg/kg with Leaf [18], “Not Active” in the data set on Flower [19] and 32.3 mg/kg in the data set on Flower [20]. In addition, the Drug recovery with Leaf [3] is reported as 27%; with Root [6], 44%; in the data set with Flower [8], 27%; in the data set with Leaf [9], 44%; in the data set on Root [16] it was 27%; with Flower [21], 44%.
